According to US6066656A, “2,5-diamino-3,4-disubstituted-1,6-diphenylhexane isosteres comprising benzamide, sulfonamide and anthranilamide subunits and methods of using same” (The United States of America as represented by the …, priority 1998, dated 2000):
Where two headings read alike, the source gives them in different places.

What was measured:
viral activity = conditions: cited from earlier work
[1] = target: T1, HIV-1 protease (wild-type, WT) (Human immunodeficiency virus type 1 group M subtype B, UniProt P04585); assay: Inhibition of purified wild-type HIV-1 protease (fluorogenic substrate cleavage), Ki and % inhibition; assay type: biochemical
T1 construct: purified HIV-1 protease (wild-type, WT)
Description: (§1) The inhibition constants (Ki) for the compounds of the above examples were determined using purified HIV-1 protease (wild-type, WT) (Tables I, II, IV and V) and R8Q and V82I mutant HIV-1 proteases (Table III). Ki is an inhibition constant of a given compound as derived by enzyme kinetics. A low Ki represents a high affinity of the compound for the enzyme, i.e., tight binding or low dissociation. Inhibition of the cleavage was assayed using a fluorogenic substrate available from Molecular Probes, Inc., Eugene, Oreg., and described in Kageyama et al., Antimicrob. Agents. Chemother., 37, 272 (1993), and a fluorogenic substrate available from Bachem California, Torrance, Calif., and described in Kageyama et al. (1993), supra. The inhibitory potencies of these compounds are set forth in Tables I-V. Percent inhibition is the percentage inhibition of an enzyme's activity by a given compound at a given concentration.

[2] = target: T2, R8Q mutant HIV-1 protease (Human immunodeficiency virus type 1 group M subtype B, UniProt P04585, R496Q); assay: Inhibition of R8Q mutant HIV-1 protease (fluorogenic substrate cleavage); assay type: biochemical; conditions: Table III
T2 construct: R8Q and V82I mutant HIV-1 proteases
Description: as §1

[3] = target: T3, V82I mutant HIV-1 protease (Human immunodeficiency virus type 1 group M subtype B, UniProt P04585, V570I); assay: Inhibition of V82I mutant HIV-1 protease (fluorogenic substrate cleavage); assay type: biochemical; conditions: Table III
T3 construct: R8Q and V82I mutant HIV-1 proteases
Description: as §1

[4] = Table III, wild-type HIV protease, read-out: Ki WT
[5] = Table V, spread wrapped on the next line: DN-1 ± 0.6, DN-4 ± 0.09, DN-5 ± 1.3, DN-6B ± 0.3, DN-10 ± 0.007, DN-11 ± 0.1, read-out: Ki

Compound: CC(C)c1nc(CN(C)C(=O)N[C@H](C(=O)N[C@@H](Cc2ccccc2)C[C@H](O)[C@H](Cc2ccccc2)NC(=O)OCc2cncs2)C(C)C)cs1 [ABT538]
- EC50 (viral activity; comparison compounds in clinical trials): 36 nM

Compound: O=C(Cc1ccccc1)N[C@@H](Cc1ccccc1)[C@H](O)[C@H](O)[C@H](Cc1ccccc1)NC(=O)Cc1ccccc1 [Compound 5]
- inhibition of HIV PR (in words) [1]: weak inhibitor of HIV PR
- inhibition at 10 µM ([1]; read-out: % inhib): 38%

Compound: O=C(Cc1cccc(O)c1)N[C@@H](Cc1ccccc1)[C@H](O)[C@H](O)[C@H](Cc1ccccc1)NC(=O)Cc1cccc(O)c1 [Compound 5a]
- inhibition of HIV PR (in words) [1]: small improvements in inhibition of HIV PR
- Ki ([1]; Table I, read-out: Ki): 3000 nM

Compound: O=C(Cc1ccccc1O)N[C@@H](Cc1ccccc1)[C@H](O)[C@H](O)[C@H](Cc1ccccc1)NC(=O)Cc1ccccc1O [Compound 5b]
- inhibition of HIV PR (in words) [1]: small improvements in inhibition of HIV PR
- inhibition at 10 µM ([1]; read-out: % inhib): 66%

Compound: O=C(N[C@@H](Cc1ccccc1)[C@@H](O)[C@H](O)[C@H](Cc1ccccc1)NC(=O)c1ccccc1)c1ccccc1 [Compound 6]
- inhibition at 10 µM ([1]; read-out: % inhib): 55%

Compound: O=C(N[C@@H](Cc1ccccc1)[C@H](O)[C@H](O)[C@H](Cc1ccccc1)NC(=O)c1cccc(O)c1)c1cccc(O)c1 [Compound 7, (2S,3R,4S,5S)-2,5-bis[((3-hydroxyphenyl)carbonyl)amino]-3,4-dihydroxy-1,6-diphenyl-hexane]
- Ki [2]: 36 nM
- Ki [3]: 51 nM
- inhibition of HIV PR (in words) [1]: potent inhibitors of HIV PR
- Ki ([1]; Table II, read-out: Ki): 22 nM
- Ki [1, 4]: 22 nM
- relative potency, R,S vs R,R diol core (compounds 7 and 8) ([1]; in general, R,S core compared with R,R core): three times more potent
- Ki ([1]; read-out: Ki): 22 nM

Compound: O=C(N[C@@H](Cc1ccccc1)[C@@H](O)[C@H](O)[C@H](Cc1ccccc1)NC(=O)c1cccc(O)c1)c1cccc(O)c1 [Compound 8]
- Ki ([1]; Table II, read-out: Ki): 79 nM

Compound: O=C(NC(Cc1ccccc1)C(O)C(O)C(Cc1ccccc1)NC(=O)c1cccc(O)c1)c1cccc(O)c1 (stereo not shown) [Compound 9]
- Ki ([1]; Table II, read-out: Ki): 43 nM

Compound: O=C(N[C@@H](Cc1ccccc1)[C@@H](O)[C@H](O)[C@H](Cc1ccccc1)NC(=O)c1ccc(O)cc1)c1ccc(O)cc1 [Compound 10]
- Ki ([1]; Table II, read-out: Ki): 330 nM
- Ki ([1]; read-out: Ki): 330 nM

Compound: O=C(N[C@@H](Cc1ccccc1)[C@@H](O)[C@H](O)[C@H](Cc1ccccc1)NC(=O)c1ccccc1O)c1ccccc1O [Compound 11]
- inhibition of HIV PR (in words) [1]: dramatic loss in enzyme inhibitory potency
- inhibition at 10 µM ([1]; at 10 μM, read-out: % inhibition): 66%
- inhibition at 10 µM ([1]; read-out: % inhib): 66%

Compound: O=C(N[C@@H](Cc1ccccc1)[C@H](O)[C@H](O)[C@H](Cc1ccccc1)NC(=O)c1ccc(O)c(O)c1)c1ccc(O)c(O)c1 [Compound 12]
- Ki [2]: 40 nM
- Ki [3]: 235 nM
- Ki ([1]; Table II, unit nm [sic], read-out: Ki): 80 nM
- Ki [1, 4]: 80 nM

Compound: O=C(N[C@@H](Cc1ccccc1)[C@H](O)[C@H](O)[C@H](Cc1ccccc1)NC(=O)c1cc(O)cc(O)c1)c1cc(O)cc(O)c1 [Compound 13]
- Ki ([1]; Table II, read-out: Ki): 700 nM

Compound: Cc1cc(O)cc(C(=O)N[C@@H](Cc2ccccc2)[C@H](O)[C@H](O)[C@H](Cc2ccccc2)NC(=O)c2cc(C)cc(O)c2)c1 [Compound 14]
- Ki ([1]; Table II, read-out: Ki): 1000 nM

Compound: Cc1ccc(O)cc1C(=O)N[C@@H](Cc1ccccc1)[C@H](O)[C@H](O)[C@H](Cc1ccccc1)NC(=O)c1cc(O)ccc1C [Compound 15]
- Ki [2]: 89 nM
- Ki [3]: 54 nM
- Ki ([1]; Table II, read-out: Ki): 75 nM
- Ki [1, 4]: 75 nM
- Ki ([1]; read-out: Ki): 75 nM

Compound: Cc1ccc(C(=O)N[C@@H](Cc2ccccc2)[C@H](O)[C@H](O)[C@H](Cc2ccccc2)NC(=O)c2ccc(C)c(O)c2)cc1O [Compound 16]
- Ki ([1]; Table II, read-out: Ki): 132 nM

Compound: Nc1cccc(C(=O)N[C@@H](Cc2ccccc2)[C@H](O)[C@H](O)[C@H](Cc2ccccc2)NC(=O)c2cccc(N)c2)c1 [Compound 17]
- Ki [2]: 20 nM
- Ki [3]: 109 nM
- inhibition of HIV PR (in words) [1]: potent inhibitors of HIV PR
- Ki ([1]; Table II, read-out: Ki): 5 nM
- Ki [1, 4]: 5 nM
- Ki ([1]; read-out: Ki): 5 nM

Compound: COCCOCCOc1cccc(C(=O)N[C@@H](Cc2ccccc2)[C@H](O)[C@H](O)[C@H](Cc2ccccc2)NC(=O)c2cccc(OCCOCCOC)c2)c1 [Compound 18]
- inhibition at 10 µM ([1]; read-out: % inhib): 63%

Compound: O=C(N[C@@H](Cc1ccccc1)[C@H](O)[C@H](O)[C@H](Cc1ccccc1)NC(=O)c1cccc(OCCOc2ccccc2)c1)c1cccc(OCCOc2ccccc2)c1 [Compound 19]
- inhibition at 10 µM ([1]; read-out: % inhib): 9%

Compound: O=C(N[C@@H](Cc1ccccc1)[C@H](O)[C@H](O)[C@H](Cc1ccccc1)NC(=O)c1cc(=O)c2ccccc2o1)c1cc(=O)c2ccccc2o1 [Compound 20]
- inhibition of HIV PR (in words) [1]: diminished binding
- inhibition at 10 µM ([1]; read-out: % inhib): 67%

Compound: O=C(N[C@@H](Cc1ccccc1)[C@H](O)[C@H](O)[C@H](Cc1ccccc1)NC(=O)c1cc(O)c2ccccc2n1)c1cc(O)c2ccccc2n1 [Compound 21]
- inhibition of HIV PR (in words) [1]: diminished binding
- inhibition at 10 µM ([1]; read-out: % inhib): 31%

Compound: O=C(N[C@@H](Cc1ccccc1)[C@H](O)[C@H](O)[C@H](Cc1ccccc1)NC(=O)c1cccc([N+](=O)[O-])c1)c1cccc([N+](=O)[O-])c1 [Compound 22]
- inhibition at 10 µM ([1]; read-out: % inhib): 40%

Compound: O=C(N[C@@H](Cc1ccccc1)[C@@H](O)[C@H](O)[C@H](Cc1ccccc1)NC(=O)c1cccnc1)c1cccnc1 [Compound 23]
- Ki ([1]; Table II, read-out: Ki): 400 nM

Compound: O=C(N[C@@H](Cc1ccccc1)C[C@H](O)[C@H](Cc1ccccc1)NC(=O)c1cccc(O)c1)c1cccc(O)c1 [Compound 24]
- Ki [2]: 34 nM
- Ki [3]: 96 nM
- inhibition of HIV PR (in words) [1]: did not improve the inhibitory potencies
- Ki ([1]; Table II, read-out: Ki): 25 nM
- Ki [1, 4]: 25 nM

Compound: Nc1cccc(C(=O)N[C@@H](Cc2ccccc2)C[C@H](O)[C@H](Cc2ccccc2)NC(=O)c2cccc(N)c2)c1 [Compound 25]
- inhibition of HIV PR (in words) [1]: did not improve the inhibitory potencies
- Ki ([1]; Table II, read-out: Ki): 6 nM

Compound: CC(=O)Nc1ccccc1C(=O)N[C@@H](Cc1ccccc1)[C@H](O)[C@H](O)[C@H](Cc1ccccc1)NC(=O)c1ccccc1NC(C)=O [Compound 26]
- Ki ([1]; Table IV, read-out: Ki): 41 nM
- Ki ([1]; read-out: Ki): 41 nM

Compound: CCOC(=O)Nc1ccccc1C(=O)N[C@@H](Cc1ccccc1)[C@H](O)[C@H](O)[C@H](Cc1ccccc1)NC(=O)c1ccccc1NC(=O)OCC [Compound 28]
- inhibition at 10 µM ([1]; Table IV, @ 10 μM, read-out: % inhibition): 41%

Compound: O=C(CO)Nc1ccccc1C(=O)N[C@@H](Cc1ccccc1)[C@H](O)[C@H](O)[C@H](Cc1ccccc1)NC(=O)c1ccccc1NC(=O)CO [Compound 29]
- Ki ([1]; Table IV, read-out: Ki): 41 nM

Compound: O=C(Nc1ncccc1C(=O)N[C@@H](Cc1ccccc1)[C@H](O)[C@H](O)[C@H](Cc1ccccc1)NC(=O)c1cccnc1NC(=O)OCc1ccccc1)OCc1ccccc1 [Compound 30]
- Ki ([1]; Table IV, read-out: Ki): 3 nM

Compound: Cc1cccc(C(=O)N[C@@H](Cc2ccccc2)[C@H](O)[C@H](O)[C@H](Cc2ccccc2)NC(=O)c2cccc(C)c2NC(=O)OCc2ccccc2)c1NC(=O)OCc1ccccc1 [Compound 31]
- Ki ([1]; Table IV, read-out: Ki): 12 nM

Compound: O=C(Nc1c(Cl)cccc1C(=O)N[C@@H](Cc1ccccc1)[C@H](O)[C@H](O)[C@H](Cc1ccccc1)NC(=O)c1cccc(Cl)c1NC(=O)OCc1ccccc1)OCc1ccccc1 [Compound 32]
- Ki ([1]; Table IV, read-out: Ki): 91 nM

Compound: O=C(Nc1c(O)cccc1C(=O)N[C@@H](Cc1ccccc1)[C@H](O)[C@H](O)[C@H](Cc1ccccc1)NC(=O)c1cccc(O)c1NC(=O)OCc1ccccc1)OCc1ccccc1 [Compound 33]
- Ki ([1]; Table IV, read-out: Ki): 20 nM

Compound: O=C(Nc1ccccc1C(=O)N[C@@H](Cc1ccccc1)C[C@H](O)[C@H](Cc1ccccc1)NC(=O)c1ccccc1NC(=O)OCc1ccccc1)OCc1ccccc1 [Compound 35]
- Ki ([1]; Table IV, read-out: Ki): 1.2 nM

Compound: CC(C)[C@H](NC(=O)N(C)Cc1ccccn1)C(=O)N[C@@H](Cc1ccccc1)[C@H](O)[C@H](O)[C@H](Cc1ccccc1)NC(=O)[C@@H](NC(=O)N(C)Cc1ccccn1)C(C)C [Compound A77003]
- EC50 (viral activity; comparison compound in clinical trials, no unit printed (Ho et al.)): 200 nM

Compound: O=C(N[C@@H](Cc1ccccc1)[C@H](O)[C@H](O)[C@H](Cc1ccccc1)NC(=O)c1cccc(O)c1)OCc1ccccc1 [DN-1]
- Ki [1, 5]: 11.9 nM

Compound: O=C(Nc1ccccc1C(=O)N[C@@H](Cc1ccccc1)[C@H](O)[C@H](O)[C@H](Cc1ccccc1)NC(=O)c1cccc(O)c1)OCc1ccccn1 [DN-4]
- Ki [1, 5]: 1.7 nM

Compound: CC(C)(C)OC(=O)Nc1ccc(C(=O)N[C@@H](Cc2ccccc2)[C@@H](O)[C@@H](O)[C@H](Cc2ccccc2)NC(=O)OCc2ccccc2)cc1 [DN-5]
- Ki [1, 5]: 15.8 nM

Compound: Nc1ccc(C(=O)N[C@@H](Cc2ccccc2)[C@@H](O)[C@@H](O)[C@H](Cc2ccccc2)NC(=O)c2ccccc2NC(=O)OCc2ccccn2)cc1 [DN-6B]
- Ki [1, 5]: 6.6 nM

Compound: CC(C)(C)OC(=O)Nc1ccc(C(=O)N[C@@H](Cc2ccccc2)[C@@H](O)[C@@H](O)[C@H](Cc2ccccc2)NC(=O)c2ccccc2NC(=O)OCc2ccccn2)cc1 [DN-6]
- inhibition at 1 µM ([1]; Table V, @ 1 μM, read-out: % inhibition (printed after % Inhib. Conc.)): 15%
- % Inhib. Conc. ([1]; Table V, @ 10 NM (so in the source)): 40%

Compound: CC(C)(C)OC(=O)N[C@@H](Cc1ccccc1)[C@@H](O)[C@@H](O)[C@H](Cc1ccccc1)NC(=O)OCc1ccccc1 [DN-10]
- Ki [1, 5]: 3.09 nM

Compound: O=C(Nc1ccccc1C(=O)N[C@@H](Cc1ccccc1)[C@@H](O)[C@@H](O)[C@H](Cc1ccccc1)NC(=O)c1cccc(O)c1)OCc1ccccn1 [ND-4]
- Ki [1, 5]: 0.7 nM
